Entries after “also recorded” stand apart in the source; their conditions may differ.

In one series the test system is contextual fear memory. The series is described as follows: Contextual fear conditioning. It is filed as in vivo, mouse. Particulars: vs vehicle. On the procedure: (§1) Eight to ten-week-old male C57BL/6J mice were used for behavioral experiments. Food and water were provided ad libitum, and mice were kept on a 12:12 h light/dark cycle (lights on at 08:00 h). All procedures complied with Canadian Council on Animal Care guidelines
Mice were handled for 3 days and thereafter injected daily intraperitoneally with ISRIB (0.25 mg/kg in saline, 1% DMSO) for 4 consecutive days. One hour after the last injection the mice were trained with the protocol, which consisted of a 2-min period of context exploration, followed by a single foot shock of 0.35 mA for 1 s. The mice were returned to their home cage 1 min after the shock. One and 24 h after training, the mice were tested for contextual fear memory by placing the animals in the conditioning context for a 4-min period. The incidence of freezing was scored in 5-s intervals as either “freezing” or “not freezing”. Percent of freezing indicates the number of intervals in which freezing was observed divided by total number of 5-s intervals. Statistical analyses were done by Student's t tests and one-way ANOVA followed by between-group comparisons using Tukey's posthoc test.

In the next series the test system is RPMI 8226 cells. Put plainly: Multiple myeloma xenograft model (RPMI 8226, BALB/c scid mice). It is filed as in vivo, mouse. The following applies: 5 mg/kg orally, daily.
The test system of a further series is spatial learning. The series is described as follows: Morris water maze (hidden platform, weak training). It is filed as in vivo, mouse. Particulars: p<0.05. On the procedure:
as §1
Mice were trained in a water pool of 100 cm diameter with a hidden platform of 10 cm diameter. Mice were handled daily for 3 days before the experiment, and the training protocol consisted of 1 swimming trial per day. Each mouse swam until it found the hidden platform or 120 s, when it was gently guided to the platform and stayed there for 10 s before being returned to the cage. Immediately after the swimming trial the mice were injected intraperitoneally with ISRIB (0.25 mg/kg in saline, 1% DMSO). For the probe test, the platform was removed and each mouse was allowed to swim for 60 s, while its swimming trajectory was monitored with a video tracking system (HVS Image, Buckingham).

The conditions of series [1]: mouse, in vivo, ip, 5 mg/kg.
Procedure: Intra-peritoneal (ip), and intra-venous (iv) routes of administration were performed on 6-7 wk old female CD-1 mice (Harlan Laboratories). Animals received a single, 5 mg/kg dose in groups of three mice/compound/route of administration. […] Blood (80 ul) was collected from the saphenous vein at intervals post-dosing (20 min, 1 h, 3 h, 8 h, 24 h) in EDTA containing collection tubes (Sarstadt CB300) and plasma was prepared for analysis. Compounds were detected by time-of-flight mass spectroscopy.
A further series concerns eIF2α (p-Ser51). Put plainly: AlphaScreen SureFire eIF2α(p-Ser51) assay in U2OS cells. Format: cell-based, human. Particulars: U2OS. On the procedure:
U2OS cells were plated on 96 well plates and left to recover overnight. Cells were treated with either with 2 μg/ml tunicamycin or 100 nM thapsigargin in the presence or absence of 100 nM ISRIB or with ISRIB alone for the indicated and the level of eIF2α phosphorylation was determined using the AlphaScreen SureFire eIF2α(p-Ser51) Assay kit (Perkin Elmer) following the manufacturer's recommendations. Plates were read in an Envision Xcite Multilabel Reader using the standard Alpha Screen settings.

In the next series the test system is HEK293T cells. Format: cell-based, human. The following applies: 2 μg/mL tunicamycin plus 200 nM ISRIB, 24 h. An excerpt:
(§2) FIGS. 5A-5D. […]

Another series concerns caspase 3/7. Put plainly: Caspase 3/7 activation in Hela cells. Format: cell-based, human. Particulars: tunicamycin or thapsigargin plus 25 nM ISRIB. As to the method: as §2
Hela cells were plated in 96 well Corning plates at 0.4×10^4 cells/well 24 hours prior to imaging. […] In order to quantify the total number of cells, Vybrant DyeCycle Green staining solution (1 μM) was added directly to the well immediately after the final Caspase-3/7 scan and incubated for 1 h prior to acquiring final images. Data was analyzed using IncuCyte analysis software.

The next series relates to global translation. The series is described as follows: Metabolic labeling (35S-methionine incorporation) in HEK293T cells. Particulars: 100 nM thapsigargin plus 200 nM ISRIB. Format: cell-based, human. On the procedure:
HEK293T cells were seeded on 12 well plates, allowed to recover overnight and treated for the indicated times with the indicated compounds. The cells were subsequently switched to media lacking methionine and cysteine supplemented with the indicated compounds and 50 μCi of ^35S-methionine (Perkin Elmer) for 20 min. Cells were lysed by addition of SDS-PAGE loading buffer. Lysates were sonicated and equal amounts were loaded on SDS-PAGE gels (BioRad). The gel was dried and radioactive methionine incorporation was detected by exposure to a phosphor-screen and visualized with a Typhoon 9400 Variable Mode Imager (GE Healthcare).

For the molecule `O=C(COc1ccc(Cl)cc1)NC1CCC(NC(=O)COc2ccc(Cl)cc2)CC1` (centres unmarked) [ISRIB], the “freezing, short-term contextual fear memory” value in the series on contextual fear memory (1 h after training) is listed as “No differences were observed”. In addition, in the series with contextual fear memory (24 h after training, 0.25 mg/kg ip for 4 days, p<0.05), the “freezing, long-term contextual fear memory” value is listed as “increased freezing”. Further, the “tumor growth / tumor size vs vehicle (in words)” value with RPMI 8226 cells is given as “significant difference in tumor size; also recorded: significant reduction in the rate of tumor growth”. Further, the “reduction in tumor size at the endpoint of the study” value with RPMI 8226 cells (26 days of dosing) is listed as 50%. In the series with spatial learning (24 h after last training session), the “probe test: preference for target quadrant” value is “significantly preferred the target quadrant”. The “escape latency after 5 days of training” value in the series on spatial learning (mice, 0.25 mg/kg ip daily after training, vehicle 68.1+/−20 s) was 16.4 ± 4.8 s. Moreover, in the series with spatial learning (vs vehicle), the “probe test: crossing of the platform location” value is on record as “increased crossing of the platform location”. In series [1], this molecule registered an AUC of 3318 ng·h/mL, a CLt of 8.318 mL/h, a F % of 13.8% and a T½ of 8.43 h. For the same molecule, the Vd in series [1] came out at 96.0261 mL. Further, the “effect on eIF2α phosphorylation, compound alone” value in the series with eIF2α (p-Ser51) (no ER stress, 120 min) is given as “no effect on eIF2α phosphorylation”. Also, the “effect on eIF2α phosphorylation upon ER stress” value in the series with eIF2α (p-Ser51) (tunicamycin or thapsigargin plus 100 nM ISRIB) is on record as “did not block eIF2α phosphorylation”. For the same molecule, the “cell survival of ER-stressed cells (colony number and size)” value in the series with HEK293T cells is on record as “strong synergistic effect”. In addition, the “activity of caspases 3 and/or 7” value with caspase 3/7 is given as “significantly induced”. For the same molecule, the “effect on thapsigargin-induced drop in translation” value in the series with global translation was “abolished”.

Source of the values: patent US9708247B2, “Modulators of the eIF2alpha pathway” (The Regents of the University of California, priority 2013, dated 2017).
